Measurements as given in paper PMC11472313, “Development of Fragment-Based Inhibitors of the Bacterial Deacetylase LpxC with Low Nanomolar Activity” (Journal of Medicinal Chemistry, 2024).
Values after ≈ are worked out from the molar mass of the structure shown.

Columns and labels:
[1] = test system: P. aeruginosa LpxC (PaLpxC); conditions: cited from earlier work
P. aeruginosa LpxC = biological target: T1, P. aeruginosa LpxC (Pseudomonas aeruginosa, UniProt P47205); test: LC–MS/MS-based P. aeruginosa LpxC enzyme inhibition assay; type: biochemical; conditions: from IC50 via Cheng–Prusoff
T1 construct: made in house; host or cells: E. coli BL21(DE3)
T1 sequence (P47205 whole entry): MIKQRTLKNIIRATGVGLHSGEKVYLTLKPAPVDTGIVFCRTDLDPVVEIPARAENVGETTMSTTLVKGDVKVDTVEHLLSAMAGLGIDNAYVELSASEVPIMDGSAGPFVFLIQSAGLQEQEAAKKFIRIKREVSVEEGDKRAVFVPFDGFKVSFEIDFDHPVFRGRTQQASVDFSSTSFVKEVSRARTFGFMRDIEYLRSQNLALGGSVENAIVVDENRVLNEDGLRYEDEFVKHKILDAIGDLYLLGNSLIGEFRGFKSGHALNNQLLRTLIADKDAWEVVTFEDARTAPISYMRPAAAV
From the text: As Pseudomonas aeruginosa is one of the so-called ESKAPE pathogens,[56] being the leading cause of nosocomial infections throughout the world, and carbapenem-resistant P. aeruginosa strains were assigned the highest priority (priority 1: critical) within the “WHO priority pathogens list for R&D of new antibiotics” (WHO 2017),[57] new antibacterial agents combating these bacteria are urgently required. Thus, our newly developed LpxC inhibitors should be tested for inhibitory activity toward P. aeruginosa LpxC, which shares 57% sequence identity with E. coli LpxC.[28] Therefore, a liquid chromatography with tandem mass spectrometry (LC–MS/MS)-based P. aeruginosa LpxC assay was established. […] After incubation and subsequent termination of the enzymatic reaction, the samples were subjected to LC–MS/MS analysis. Following the chromatographic separation of substrate 1 and deacetylated product 2, the eluted compounds were ionized and subjected to fragmentation. Three multiple reaction monitoring (MRM) transitions were detected per compound [precursor ions: m/z (substrate 1) 832; m/z (deacetylated product 2) 790; product ions: m/z (product 1) 385, collision energy = −60 V; m/z (product 2) 159, collision energy = −80 V; m/z (product 3) 79, collision energy = −140 V]. The MRM transitions 832 → 79 of substrate 1 and 790 → 79 of product 2 were used as quantifiers; the other mass transitions were used as qualifiers.
The protocol of the LC–MS/MS-based P. aeruginosa LpxC assay was based on the E. coli LpxC C63A enzyme assay. Compared to the fluorescence-based enzyme assay, the substrate was diluted 1:10 and the inhibitors were diluted 1:4.
The wells in a black, nonbinding, 96-well fluorescence microplate (Greiner Bio One, Frickenhausen) were filled with 93 μL of 2.69 μM UDP-3-O-[(R)-3-hydroxymyristoyl]-N-acetylglucosamine in assay buffer [50 mM KH2PO4/K2HPO4 (pH = 7.5), 80 μM dithiothreitol, 0.02% Brij 35]. In order to assay the inhibitors at final concentrations from 5 nM up to 5 μM, 2 μL of a respective dilution of the compounds in DMSO were added. The addition of 5 μL of a solution of purified P. aeruginosa LpxC (5 μg mL^–1) in assay buffer led to final concentrations of 2.5 μM UDP-3-O-[(R)-3-hydroxymyristoyl]-N-acetylglucosamine, 7.5 nM P. aeruginosa LpxC, 2% DMSO, and from 5 nM up to 5 μM inhibitor. The microplate was incubated for 30 min at 37 °C in a plate shaker. Then, the biochemical reaction was stopped by adding 40 μL of 0.625 M hydrochloric acid. The reaction mixtures were further incubated for 10 min, sealed, and stored at −80 °C until analysis.
LC–MS/MS-Analysis. The reaction mixtures were separated by ultrahigh performance liquid-chromatography (1290 II Infinity UHPLC, Agilent Technologies), and the eluted compounds were analyzed by mass spectrometry using electrospray ionization in negative ion mode with a triple quadrupole linear ion trap mass spectrometer (QTRAP 5500, AB Sciex LLC).
To analyze the eluted compounds by mass spectrometry, a MRM method was applied. The specific parameters of this method are given in Table S2 (Supporting Information). After detection and selection of the precursor ions (1: m/z 832; 2: m/z 790), both analytes were fragmented, leading to three identical product ions [m/z (product 1) 385, collision energy = −60 V; m/z (product 2) 159, collision energy = −80 V; m/z (product 3) 79, collision energy = −140 V]. The mass transitions 832 → 79 (substrate 1) and 790 → 79 (product 2) were used as quantifiers; the other mass transitions were used as qualifiers. The ratio between substrate 1 and product 2 was quantified by comparing the peak areas of the quantifiers. The percentual inhibition caused by each inhibitor concentration was determined with respect to the amount of the product formed in the noninhibited reaction after 30 min.
Each assay was performed at least two times on separate days. […]

E. coli BL21(DE3) [2] = test: disc diffusion assay; type: cell-based; conditions: 0.15 μmol per 6 mm disc
Procedure: (§1) Besides measuring the inhibitory activities toward E. coli LpxC C63A, the antibacterial activities of the synthesized hydroxamic acids were evaluated by determining their minimal inhibitory concentrations (MIC) in broth dilution tests as well as by performing disc diffusion assays (Table 1).
(§2) The disc diffusion assays against E. coli BL21(DE3) and the defective strain E. coli D22 were performed as follows: liquid cultures of the bacteria were grown overnight in lysogeny broth (LB)[73] at 37 °C and 200 rpm. 150 μL of an overnight cell suspension was spread evenly onto LB agar plates. 0.15 μmol of each compound (dissolved in 10 or 15 μL DMSO) were applied onto circular filter paper (Ø = 6 mm, Cytiva). Pure DMSO, serving as a negative control, and CHIR-090, serving as a positive control, were also spotted. The agar plates were incubated overnight at 37 °C, and the diameter of the zone of growth inhibition was measured for each compound. Each assay was performed at least three times on separate days.

E. coli D22 [3] = test: disc diffusion assay; type: cell-based; conditions: 0.15 μmol per 6 mm disc
Procedure: as §1, §2

E. coli BL21(DE3) [4] = test: MIC, broth microdilution; type: cell-based; conditions: Escherichia coli, 20 h, 37 °C, LB
Procedure: as §1
(§3) The MIC values of the compounds were determined by means of the microdilution method using 96-well plates.
(§4) The overnight suspension was diluted 1:1000 in fresh LB. 10 μL of a 2-fold dilution series of the compounds in DMSO and 90 μL of LB were dispensed to each well of a 96-well plate. Then, 100 μL of the inoculated medium was added, resulting in 5 × 10^5 cfu mL^–1, 5% DMSO, and a final concentration range of the test compounds between 64 and 0.016 μg mL^–1. The plates were incubated for 20 h at 37 °C. The MIC was defined as the lowest concentration of the compounds that prevented visible growth after incubation. Each assay was performed at least three times on separate days.

E. coli D22 [5] = test: MIC, broth microdilution; type: cell-based; conditions: Escherichia coli, 20 h, 37 °C, LB
Procedure: as §1, §3, §4

E. coli LpxC C63A = biological target: T2, E. coli LpxC C63A (Escherichia coli, UniProt P0A725, C63A); test: fluorescence-based E. coli LpxC C63A enzyme inhibition assay; type: biochemical; conditions: Ki E. coli LpxC C63A, from IC50 via Cheng–Prusoff
T2 construct: made in house; host or cells: E. coli BL21(DE3)
T2 sequence (P0A725 whole entry C63A): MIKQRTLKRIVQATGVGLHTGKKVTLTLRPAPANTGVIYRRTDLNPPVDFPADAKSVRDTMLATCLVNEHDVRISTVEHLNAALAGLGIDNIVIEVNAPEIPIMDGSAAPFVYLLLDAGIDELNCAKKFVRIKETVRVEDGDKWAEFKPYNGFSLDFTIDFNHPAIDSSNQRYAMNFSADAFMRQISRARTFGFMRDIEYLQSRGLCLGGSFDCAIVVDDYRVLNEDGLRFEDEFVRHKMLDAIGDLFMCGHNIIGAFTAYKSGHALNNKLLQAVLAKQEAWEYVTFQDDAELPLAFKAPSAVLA
Procedure: In order to determine the inhibitory activities of the compounds of interest toward E. coli LpxC, a fluorescence-based enzyme assay was deployed, in which the formed deacetylated natural product UDP-3-O-[(R)-3-hydroxymyristoyl]glucosamine (2) is transformed into a fluorescent isoindole with o-phthaldialdehyde and 2-mercaptoethanol.[48],[49] […] The KM of E. coli LpxC C63A was determined experimentally using a mass spectrometry-based LpxC assay (Figure S8, Supporting Information, vide infra).
A fluorescence-based microplate assay for LpxC activity was performed as described by Clements et al.[48] The wells in a black, nonbinding, 96-well fluorescence microplate (Greiner Bio One, Frickenhausen) were filled with 93 μL of 26.9 μM UDP-3-O-[(R)-3-hydroxymyristoyl]-N-acetylglucosamine in assay buffer [40 mM sodium morpholinoethanesulfonic acid (pH 6.0), 80 μM dithiothreitol, 0.02% Brij 35]. In order to assay the inhibitors at final concentrations from 20 nM up to 20 μM, 2 μL of a respective dilution of the compounds in DMSO were added. The addition of 5 μL of a solution of purified LpxC (10 μg mL^–1) in assay buffer led to final concentrations of 25 μM UDP-3-O-[(R)-3-hydroxymyristoyl]-N-acetylglucosamine, 15 nM E. coli LpxC C63A, 2% DMSO, and from 20 nM up to 20 μM inhibitor. The microplate was incubated for 30 min at 37 °C in a plate shaker. Then, the biochemical reaction was stopped by adding 40 μL of 0.625 M sodium hydroxide. The reaction mixture was further incubated for 10 min and neutralized by adding 40 μL of 0.625 M acetic acid. The deacetylated product UDP-3-O-[(R)-3-hydroxymyristoyl]glucosamine was converted into a fluorescing isoindole by adding 120 μL of an o-phthaldialdehyde-2-mercaptoethanol solution, which was prepared by dissolving 10 mg of o-phthaldialdehyde in 1 mL of methanol, diluting the mixture with 24 mL of a sodium borate buffer (0.1 M), and finally adding 2.5 μL of 2-mercaptoethanol.[49] Fluorescence was measured with a TriStar^2 S LB 942 plate reader (Berthold, Bad Wildbad) at 340 nm excitation and 460 nm emission wavelengths. Each assay was performed at least three times on separate days. The IC50 values were calculated via Probit-log concentration graphs with the aid of the software Origin and were subsequently converted into Ki values using the Cheng–Prusoff equation.[75],[76]

[6] = test system: K. pneumoniae ATCC 700603; test: disc diffusion assay; type: cell-based, Klebsiella pneumoniae; conditions: 0.15 μmol per 6 mm disc
Procedure: (§5) In the performed disc diffusion assays, indole derivatives (S)-13h, (S)-13i, and (S)-13j caused promising halos of growth inhibition.
(§6) The disc diffusion assays against E. coli TOP10 (Thermo Fisher, Waltham, USA), E. coli ATCC 35218, K. pneumoniae ATCC 700603, and P. aeruginosa ATCC 27853 were performed as follows: the bacteria were grown overnight on a Columbia blood agar plate (Oxoid, Basingstoke, UK), and one colony was suspended in sterile saline to yield a suspension of 0.5 McFarland standard. Using a sterile swab, the suspension was spread evenly onto Mueller–Hinton agar (Oxoid, Basingstoke, UK). 0.15 μmol of each compound (dissolved in 10 μL DMSO) was applied onto circular 6 mm diameter filter paper disks, which were then placed on the agar. After incubating the agar plates for 20 h at 37 °C, the diameter of the zone of growth inhibition was measured for each compound.

LasB = biological target: T3, LasB (Pseudomonas aeruginosa, UniProt Q02RJ6); test: FRET-based LasB in vitro inhibition assay; type: biochemical, P. aeruginosa PA14
T3 construct: The elastase LasB of P. aeruginosa is a secreted metalloprotease; endogenous in cells; host or cells: P. aeruginosa PA14 culture supernatant
T3 sequence (Q02RJ6 198-498): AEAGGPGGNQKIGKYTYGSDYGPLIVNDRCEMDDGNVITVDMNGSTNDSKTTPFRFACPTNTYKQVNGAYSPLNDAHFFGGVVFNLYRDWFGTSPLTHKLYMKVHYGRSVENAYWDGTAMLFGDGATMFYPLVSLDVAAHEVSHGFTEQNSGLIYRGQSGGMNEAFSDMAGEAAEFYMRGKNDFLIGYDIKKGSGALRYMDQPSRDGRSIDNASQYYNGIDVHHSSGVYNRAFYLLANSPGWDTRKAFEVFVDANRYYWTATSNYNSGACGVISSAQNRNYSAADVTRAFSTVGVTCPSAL
Procedure: Purification of LasB from P. aeruginosa PA14 supernatant and the subsequent performance of the FRET-based in vitro inhibition assay was performed as described previously.[66] The TACE (ADAM-17) inhibitor screening kit was purchased from Sigma-Aldrich (Saint Louis, MO). MMPs 1–3 along with the SensoLyte 520 Generic MMP Activity Kit Fluorimetric were purchased from AnaSpec (Fremont, CA, USA). The assays were performed according to the guidelines of the respective manufacturer. Fluorescence signals were measured using a CLARIOstar plate reader (BMG Labtech, Ortenberg, Germany).

E. coli ATCC 35218 = test: disc diffusion assay; type: cell-based; conditions: 0.15 μmol per 6 mm disc
Procedure: as §5, §6

E. coli TOP10 = test: disc diffusion assay; type: cell-based; conditions: 0.15 μmol per 6 mm disc
Procedure: as §5, §6

P. aeruginosa ATCC 27853 = test: disc diffusion assay; type: cell-based; conditions: 0.15 μmol per 6 mm disc
Procedure: as §5, §6

LpxC–9 complex = test: NMR-ILOE (interligand NOESY) of fragment hits with LpxC and 9; conditions: fragment hits binding the LpxC–9 complex by STD and WaterLogsy; 6 μM LpxC
Procedure: In order to find fragments specifically addressing the UDP-binding pocket, which can be linked to the LpxC inhibitors, a fragment screen was performed against LpxC bound to 9. First, 650 fragments in cocktails of five were tested for binding to the LpxC–9 complex using STD-NMR and WaterLogsy experiments. Then, fragment hits identified as potential binders were tested one by one against the LpxC–9 complex by STD-NMR and WaterLogsy experiments performed under identical experimental conditions. A total of 97 fragment hits were identified as binders, leading to a hit rate of 15%.
Then, NMR-ILOE experiments were performed with selected fragment hits in the presence of LpxC and the unsubstituted hydroxamic acid 9. This allowed the identification of fragments that bind in the enzyme’s UDP-binding pocket near the methylene group in the α-position of the inhibitor’s hydroxamate moiety. Weak interligand NOESY peaks were observed between inhibitor 9 and nine fragments. By contrast, no interligand NOESY peaks were observed between compound 9 and the other ten fragments. […] Unexpectedly, we also observed interligand NOESY between the fragment protons and protons of the morpholino moiety.
Standard 1D and STD NMR spectra were acquired at 20 °C with a Bruker 600 MHz NMR spectrometer equipped with a 5 mm cryoprobe. Parameters for the STD experiments (saturation frequency and saturation time) were identical for all samples. […] STD saturation time was 2 s. WaterLOGSY mixing time was 1.5 s. Two NOESY experiments were recorded with mixing times of 0.6 and 0.3 s. STD and WaterLOGSY spectra were recorded with the same NMR tubes containing 3 μM LpxC, compound 9 at 500 μM, and fragments at 500 μM. For NOESY experiments, NMR tubes contained 6 μM LpxC.
Temperature was set to 293 K for all NMR experiments.

| Structure (SMILES) | Inhibition zone E. coli BL21(DE3) (E. coli BL21(DE3) [2]) [mm] | Inhibition zone E. coli D22 (E. coli D22 [3]) [mm] | MIC (E. coli BL21(DE3) [4]) [µg/mL] | MIC (E. coli D22 [5]) [µg/mL] | Ki (E. coli LpxC C63A) [µM] | Inter-Ligand NOESY peaks between the fragment and 9 (LpxC–9 complex) | further results |
| --- | --- | --- | --- | --- | --- | --- | --- |
| C[C@@](CO)(OCc1ccc(-c2ccccc2)cc1)C(=O)NO [5a] |  |  |  |  |  |  | IC50 [1]: 0.022 µM |
| O=C(NC[C@@H](OCc1ccc(C#Cc2ccc(CN3CCOCC3)cc2)cc1)C(=O)NO)c1c[nH]c2ccccc12 [(R)-13h] | ≤6 | 13.3 ± 1.0 | > 16 | 4 (≈ 7.24 µM) | 1.58 ± 0.216 |  | Ki (P. aeruginosa LpxC): 0.631 ± 0.198 µM |
| O=C(NC[C@H](OCc1ccc(C#Cc2ccc(CN3CCOCC3)cc2)cc1)C(=O)NO)c1ccc(-c2ccccc2)cc1 [(S)-13b] | ≤6 | 11.2 ± 2.9 | > 16 | 0.13 (≈ 0.22 µM) | > 2.54 |  | Inhibition zone K. pneumoniae ATCC 700603 [6]: <6 mm; LasB Inhibition at 20 μM (LasB; 20 μM): little to no inhibitory activity; inhibition at 20 µM (LasB; read-out: LasB Inhibition at 20 μM): < 10%; Inhibition zone E. coli ATCC 35218 (E. coli ATCC 35218): <6 mm; Inhibition zone E. coli TOP 10 (E. coli TOP10): <6 mm; Inhibition zone P. aeruginosa ATCC 27853 (P. aeruginosa ATCC 27853): <6 mm |
| Cn1c(O)cc2ccccc21 [F13] |  |  |  |  |  | no |  |
| c1ccc(-c2cc[nH]n2)cc1 [F14] |  |  |  |  |  | yes |  |
